According to PMC4971050 (Forensic Toxicology, 2016):

Experiments:
human CB2 receptor = human CB2 receptor (Homo sapiens, UniProt P34972); assay: FLIPR membrane potential assay; type: cell-based; details: for hCB2 Max ± SEM (% CP 55,940) at 30 µM: effect at 30 µM, highest concentration tested, relative to 1 µM CP 55,940; for EC50: membrane potential; for hCB2 Max ± SEM (% CP 55,940): maximum drug effect as percentage of maximally effective (1 µM) CP 55,940
human CB1 receptor = human CB1 receptor (Homo sapiens, UniProt P21554); assay: FLIPR membrane potential assay; type: cell-based; details: for EC50: membrane potential; for CB1 selectivity: ratio of CB2 EC50 to CB1 EC50; for hCB1 Max ± SEM (% CP 55,940): maximum drug effect as percentage of maximally effective (1 µM) CP 55,940
human CB1 receptor, sequence (P21554 whole entry): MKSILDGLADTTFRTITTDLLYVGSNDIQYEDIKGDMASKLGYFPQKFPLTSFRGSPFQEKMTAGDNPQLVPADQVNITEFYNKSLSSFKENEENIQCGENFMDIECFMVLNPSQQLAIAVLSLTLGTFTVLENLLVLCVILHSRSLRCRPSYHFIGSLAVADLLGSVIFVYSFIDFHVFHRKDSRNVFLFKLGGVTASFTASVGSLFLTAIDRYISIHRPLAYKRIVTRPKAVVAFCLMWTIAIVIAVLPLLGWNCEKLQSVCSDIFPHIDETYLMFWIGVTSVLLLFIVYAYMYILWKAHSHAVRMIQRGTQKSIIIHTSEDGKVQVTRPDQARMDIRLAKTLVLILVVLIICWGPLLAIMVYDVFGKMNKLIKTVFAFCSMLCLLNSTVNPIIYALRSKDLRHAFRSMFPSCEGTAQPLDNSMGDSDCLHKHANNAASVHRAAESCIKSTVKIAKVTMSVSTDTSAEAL

[1] = hCB1 pEC50 ± SEM, AtT-20-CB1 cells
[2] = hCB2 pEC50 ± SEM, AtT-20-CB2 cells

human CB2 receptor, sequence (P34972 whole entry): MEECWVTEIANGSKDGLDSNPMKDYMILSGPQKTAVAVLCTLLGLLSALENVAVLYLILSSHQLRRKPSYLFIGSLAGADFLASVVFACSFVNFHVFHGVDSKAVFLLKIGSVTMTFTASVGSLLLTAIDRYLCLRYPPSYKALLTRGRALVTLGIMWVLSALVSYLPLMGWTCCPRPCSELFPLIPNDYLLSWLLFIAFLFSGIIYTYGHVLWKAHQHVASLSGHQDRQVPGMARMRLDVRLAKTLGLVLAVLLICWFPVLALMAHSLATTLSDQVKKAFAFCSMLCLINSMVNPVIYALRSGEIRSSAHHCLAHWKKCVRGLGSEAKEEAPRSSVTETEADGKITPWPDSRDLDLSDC

| SMILES | hCB2 Max ± SEM (% CP 55,940) at 30 µM (human CB2 receptor) | hCB1 Max ± SEM (% CP 55,940) at 30 µM (human CB1 receptor; effect at 30 µM, highest concentration tested, relative to 1 µM CP 55,940) | EC50 (human CB1 receptor; hCB1 EC50, AtT-20-CB1 cells) [nM] | CB1 selectivity (human CB1 receptor) | EC50 (human CB2 receptor; hCB2 EC50, AtT-20-CB2 cells) [nM] | EC50 (human CB1 receptor; [1]) [nM] | hCB1 Max ± SEM (% CP 55,940) (human CB1 receptor) | hCB2 Max ± SEM (% CP 55,940) (human CB2 receptor) | EC50 (human CB2 receptor; [2]) [nM] |
| --- | --- | --- | --- | --- | --- | --- | --- | --- | --- |
| CC(C)[C@H](NC(=O)c1c2ccccc2nn1CC1CCCCC1)C(N)=O [compound 7, (S)-N-(1-Amino-3-methyl-1-oxobutan-2-yl)-2-(cyclohexylmethyl)-2H-indazole-3-carboxamide] | 45 ± 7 (at 30 µM) % CP 55,940 |  |  |  |  |  |  |  |  |
| CC(C)[C@H](NC(=O)c1c2ccccc2nn1Cc1ccc(F)cc1)C(N)=O [compound 8, (S)-N-(1-Amino-3-methyl-1-oxobutan-2-yl)-2-(4-fluorobenzyl)-2H-indazole-3-carboxamide] | 25 ± 4 (at 30 µM) % CP 55,940 | 61 ± 12 (at 30 µM) % CP 55,940 |  |  |  |  |  |  |  |
| CCCCCn1nc2ccccc2c1C(=O)N[C@H](C(N)=O)C(C)C [compound 9, (S)-N-(1-Amino-3-methyl-1-oxobutan-2-yl)-2-pentyl-2H-indazole-3-carboxamide] |  |  | 4080 | 1.0 | 4120 |  |  |  |  |
| CC(C)[C@H](NC(=O)c1nn(Cc2ccc(F)cc2)c2ccccc12)C(N)=O [compound 4, (S)-N-(1-Amino-3-methyl-1-oxobutan-2-yl)-1-(4-fluorobenzyl)-1H-indazole-3-carboxamide] |  |  |  | 3.2 | 6.7 | 2.14 | 151 ± 14 % CP 55,940 | 98 ± 10 % CP 55,940 |  |
| CC(C)[C@H](NC(=O)c1c2ccccc2nn1CCCCCF)C(N)=O [compound 10, (S)-N-(1-Amino-3-methyl-1-oxobutan-2-yl)-2-(5-fluoropentyl)-2H-indazole-3-carboxamide] | 47 ± 15 (at 30 µM) % CP 55,940 |  | 1930 | 1.5 | 2980 | 1910 |  |  |  |
| CC(C)[C@H](NC(=O)c1nn(CCCCCF)c2ccccc12)C(N)=O [compound 6, (S)-N-(1-Amino-3-methyl-1-oxobutan-2-yl)-1-(5-fluoropentyl)-1H-indazole-3-carboxamide] |  |  |  | 2.0 | 5.6 | 2.82 | 132 ± 9 % CP 55,940 | 98 ± 8 % CP 55,940 |  |
| CCCCCn1nc(C(=O)N[C@H](C(N)=O)C(C)C)c2ccccc21 [compound 5, (S)-N-(1-Amino-3-methyl-1-oxobutan-2-yl)-1-pentyl-1H-indazole-3-carboxamide] |  |  | 6.5 | 1.5 | 9.9 |  | 142 ± 15 % CP 55,940 | 102 ± 9 % CP 55,940 | 9.77 |
| CC(C)[C@H](NC(=O)c1nn(CC2CCCCC2)c2ccccc12)C(N)=O [compound 3, (S)-N-(1-Amino-3-methyl-1-oxobutan-2-yl)-1-(cyclohexylmethyl)-1H-indazole-3-carboxamide] |  |  | 7.8 | 2.7 |  |  | 142 ± 18 % CP 55,940 | 104 ± 11 % CP 55,940 | 20.9 |
